This note sets out measurements from patent publication EP0628545A1, “13,14-Dihydro-PGF2BETA and its isopropyl ester” (ONO PHARMACEUTICAL CO., LTD., priority 1993, dated 1994).

Molecules are shown by their SMILES. Bounds are passed on as bounds.

For one data set, the system named is intraocular pressure. The data set is described as follows: Reducing effect of intraocular pressure after instillation into the rabbit eye (Experiment 1). The class given is in vivo, Japanese White rabbits. To be noted: for Δ IOP, Reducing Effects of Intraocular Pressure: 50 µl instilled into left eye, vehicle-corrected, average of three samples; for Change in I.O.P.: area over 0 mmHg minus area under 0 mmHg of the IOP-time graph, 0-6 hr, minus = reduction. On the procedure:
For example, in a standard laboratory test the following data shown in Table 1 and 2 and in the accompanying Figure 1 were obtained. Average of the value of three samples are shown as each data. In the Figure reduction in intraocular pressure is plotted against time after administration for the compound of the invention and three comparison compounds.
Male Japanese White rabbits weighing about 3.0 kg were lightly held and the intraocular pressure was measured by Applanation Pneumatonograph after corneal anesthesia with instillation of 0.4% oxybuprocaine hydrochloride solution.
A 0.1% solution of a test compound was dissolved in vehicle which contains 2.5% conc. glycerol and 2.0% Polysorbate 80 in sterile purified water. The test solution at volume of 50 µl was instilled into left eye of each rabbit and the right eye remained untreated. As a control, the vehicle was instilled into left eye in a control group. Δ IOP (mmHg), which is an index of intraocular pressure-reducing effect, were calculated using below formula. IOP = (IOPt - IOP₀) - (IOPvt - IOPv0 ) [formula] IOPt : IOP at t hr after instillation of a test solution IOPvt : IOP at t hr after instillation of vehicle IOP₀ : IOP just before instillation of a test solution IOPv0 : IOP just before instillation of vehicle
Taking into consideration the continuous time of occurrence of the reduction effect and the intensity of the effect, the superiority of the compound of the present invention to the compared compound is clear. On the graph 1, the squares i.e. reducing effect of intraocular pressure, were calculated: That is, squares under 0 mmHg put minus and squares over 0 mmHg put plus, and the total squares are calculated and the values are shown in the Table 2.
On the graph of the intraocular pressure in course of time, area of the square (mmHg x hr) in elevation i.e. square over 0 mmHg and area of the square (mmHg x hr) in the reduction i.e. square under 0 mmHg were calculated and from the value of the former was subtracted the one of the latter. The minus-resulted value means reduction of intraocular pressure and the plus-resulted value means elevation of intraocular pressure.

A short description of data set [1]: Detection of compound and metabolite in eye tissue homogenates by liquid chromatography-mass spectrum after eye drop administration (Experiment 2). The format is in vivo, Japanese White rabbits. To be noted: 1 Hr after the last administration; for detection in the homogenates of aqueous humor, cornea or iris/ciliary body: eye drop solution of Example 1 three times every 5 mins in saccus conjunctivae. On the procedure:
Japanese White rabbits weighing 3.0 kg were used. Eye drop solution of Example 1 was administered three times every 5 mins in saccus conjunctivae. 1 Hr after the last administration, aqueous humor, cornea and iris/ciliary body were collected and homogenized respectively. The homogenates were measured by liquid chromatography-Mass spectrum.

[2] abbreviates: 0 hr after administration (baseline), 0.1% solution.
Setting [3] is: 1 hr after administration, 0.1% solution.
The mark [4] stands for this setting: 2 hr after administration, 0.1% solution.
Setting [5] is: 4 hr after administration, 0.1% solution.
[6] abbreviates: 6 hr after administration, 0.1% solution.

For the compound `CCCCC[C@H](O)/C=C/[C@@H]1[C@@H](C/C=C\CCCC(=O)OC(C)C)[C@@H](O)C[C@@H]1O` [Compared compound 1, 11-epi-PGF2α isopropyl ester], the “Δ IOP, Reducing Effects of Intraocular Pressure” value (shortened to “Δ IOP, Reducing Effects”) in the data set on intraocular pressure (setting [2]) came out at 0 mm Hg; in the data set with intraocular pressure (setting [3]), 3.5 mm Hg; in the data set on intraocular pressure (setting [4]), 1.5 mm Hg; with intraocular pressure (setting [5]) it was 1.5 mm Hg; in the data set on intraocular pressure (setting [6]), 0.2 mm Hg. Besides, the “continued elevation of the intraocular pressure” value with intraocular pressure (0.1% solution) is given as “continuous elevation till 6 hrs”. Moreover, in the data set on intraocular pressure (0.1% solution), the “initial elevation of the intraocular pressure” value (“initial elevation” below) is “showed initial elevation”. In addition, the “time after administration at which the reducing effect appeared” value (“time … at which the reducing effect appeared” below) with intraocular pressure (0.1% solution) is more than 6 h. The “Change in I.O.P.” value with intraocular pressure (0.1% solution) came out at 8.95 mmHg x hr.
For `CCCCC[C@H](O)/C=C/[C@@H]1[C@@H](C/C=C\CCCC(=O)OC(C)C)[C@@H](O)C[C@H]1O` [Compared compound 2, PGF2α isopropyl ester], the “Δ IOP, Reducing Effects” value in the data set with intraocular pressure (setting [2]) is 0 mm Hg; with intraocular pressure (setting [3]), 13.7 mm Hg; with intraocular pressure (setting [4]), 3.7 mm Hg; with intraocular pressure (setting [5]), -1 mm Hg; in the data set with intraocular pressure (setting [6]), -5.8 mm Hg. The “initial elevation” value in the data set on intraocular pressure (0.1% solution) is recorded as “extremely strong initial elevation”. In addition, the “time … at which the reducing effect appeared” value in the data set on intraocular pressure (0.1% solution) was approximately 4 h. For the same compound, in the data set with intraocular pressure (0.1% solution), the “Change in I.O.P.” value came to 11.36 mmHg x hr.
For `CCCCC[C@H](O)CC[C@@H]1[C@@H](C/C=C\CCCC(=O)OC)[C@@H](O)C[C@H]1O` [Compared compound 3, 13,14-dihydro-PGF2α methyl ester], the “Δ IOP, Reducing Effects” value is 0 mm Hg with intraocular pressure (setting [2]); 3.3 mm Hg with intraocular pressure (setting [3]); -1.3 mm Hg with intraocular pressure (setting [4]); -0.7 mm Hg in the data set on intraocular pressure (setting [5]); -4.3 mm Hg in the data set on intraocular pressure (setting [6]). The “initial elevation” value in the data set on intraocular pressure (0.1% solution) is recorded as “showed initial elevation”. Moreover, the “time … at which the reducing effect appeared” value in the data set with intraocular pressure (0.1% solution) was approximately 4 h. The “Change in I.O.P.” value in the data set with intraocular pressure (0.1% solution) was -4.35 mmHg x hr.
`CCCCC[C@H](O)CC[C@@H]1[C@@H](C/C=C\CCCC(=O)OC(C)C)[C@H](O)C[C@H]1O` [Example 1, 13,14-dihydro-PGF2β isopropyl ester]: the “Δ IOP, Reducing Effects” value in the data set with intraocular pressure (setting [2]) is listed as 0 mm Hg; in the data set with intraocular pressure (setting [3]), -1.8 mm Hg; in the data set with intraocular pressure (setting [4]) it was -5.5 mm Hg; in the data set with intraocular pressure (setting [5]), -5.5 mm Hg; with intraocular pressure (setting [6]), -5.3 mm Hg. In the data set with intraocular pressure (0.1% solution), the “initial elevation” value was “did not show initial elevation”. Moreover, the “maximum reduction of IOP” value in the data set on intraocular pressure (0.1% solution) came to 5.5 mmHg. Moreover, the “time … at which the reducing effect appeared” value in the data set with intraocular pressure (0.1% solution) came out at 1 h. Moreover, the “bulbar and palpebral conjunctival hyperemia” value in the data set on intraocular pressure (after instillation of 0.1% solution) is recorded as “not observed”. Moreover, the “Change in I.O.P.” value in the data set with intraocular pressure (0.1% solution) is reported as -26.35 mmHg x hr. Also, the “activity (reduction of intraocular pressure) reached” value in the data set with intraocular pressure (at 2 hrs after administration, same level maintained till 6 hrs) is recorded as 5.5 mmHg. In data set [1] (eye drop solution of Example 1), the hydrolysis on cornea result is given as “hydrolysed into the compound of Example 2”. Moreover, the “detection in the homogenates of aqueous humor, cornea or iris/ciliary body” value in data set [1] is listed as “not detected”.
`CCCCC[C@H](O)CC[C@@H]1[C@@H](C/C=C\CCCC(=O)O)[C@H](O)C[C@H]1O` [Example 2, 13,14-dihydro-prostaglandin F2β]: the “detection in the homogenates of aqueous humor, cornea or iris/ciliary body” value in data set [1] is “detected”.
